In the PolyMetriX glass transition set:
± gives the standard deviation of the reports.

glass transition temperature [°C]	SMILES
292.00	*C(=O)c1ccc2c(c1)C(=O)N(c1ccc(Cc3cccc(N4C(=O)c5ccc(*)cc5C4=O)c3)cc1)C2=O (repeat unit)
224.00	*c1ccc2c(c1)C(=O)N(c1c(F)cc(Oc3ccc(C(c4ccc(Oc5cc(F)c(N6C(=O)c7ccc(C(*)(C(F)(F)F)C(F)(F)F)cc7C6=O)c(F)c5)cc4)(C(F)(F)F)C(F)(F)F)cc3)cc1F)C2=O (repeat unit)
215.00	*Oc1ccc(C(C)(C)c2ccc(Cc3ccc4c(c3)C(=O)N(c3cccc(N5C(=O)c6ccc(*)cc6C5=O)c3)C4=O)cc2)cc1 (repeat unit)
226.00	*Oc1ccc(C(c2ccc(Oc3cccc4c3C(=O)N(c3ccc(Oc5ccc(N6C(=O)c7cccc(*)c7C6=O)cc5)cc3)C4=O)cc2)(C(F)(F)F)C(F)(F)F)cc1 (repeat unit)
260.00	*c1ccc2c(c1)C(=O)N(c1cccc(S(=O)(=O)c3cccc(N4C(=O)c5ccc(*)cc5C4=O)c3)c1)C2=O (repeat unit)
215.00	*Oc1cccc(C(C)(C)c2ccc(Oc3ccc4c(c3)C(=O)N(c3cccc(N5C(=O)c6ccc(*)cc6C5=O)c3)C4=O)cc2)c1 (repeat unit)
231.00	*Oc1cccc(Sc2ccc(Oc3cccc4c3C(=O)N(c3cccc(N5C(=O)c6cccc(*)c6C5=O)c3)C4=O)cc2)c1 (repeat unit)

Remark: another data set of the same source

SMILES	glass transition temperature [°C]
*Oc1ccc(CC(NC(=O)CCc2ccc(OC(=O)CCCCC(*)=O)cc2)C(=O)OCCCC)cc1 (repeat unit)	46.00
*CC(O)COc1ccc(C(C)(C)c2ccc(OCC(O)COc3cccc(NC(=O)CCCCCCC(=O)Nc4cccc(O*)c4)c3)cc2)cc1 (repeat unit)	92.00
*CCCCCCN(C)C(=O)CCCC(=O)N(*)C (repeat unit)	3.00
*CCNC(=O)c1ccccc1O* (repeat unit)	84.00
*Nc1ccc(C(C)(C)c2ccc(NC(=O)c3cc(C(*)=O)cc(N4C(=O)C5C6CCC(C6)C5C4=O)c3)cc2)cc1 (repeat unit)	311.00
*CCOCCOC(=O)c1ccc(N/C=N/c2ccc(C(=O)O*)cc2)cc1 (repeat unit)	77.00
*OP(=O)(Oc1ccccc1)Oc1c(Br)cc(C(c2cc(Br)c(*)c(Br)c2)(C(F)(F)F)C(F)(F)F)cc1Br (repeat unit)	140.00
*c1ccc(-c2cnc3cc4nc(*)cnc4cc3n2)cc1 (repeat unit)	392.00
*c1ccc2oc(-c3ccc(-c4nc5cc(C(*)(c6ccccc6)C(F)(F)F)ccc5o4)cc3)nc2c1 (repeat unit)	369.00
*/C=C/c1ccc(*)c(OCc2cc(OCCC(C)CCCC(C)C)cc(OCC(CC)CCCC)c2)c1 (repeat unit)	227.00
*CC(*)c1cccc(N(c2ccc(C)cc2)c2ccc(C)cc2)c1 (repeat unit)	126.50
*Oc1c(Br)cc(S(=O)(=O)c2cc(Br)c(OC(*)=O)c(Br)c2)cc1Br (repeat unit)	196.00
*O[Si](C)(C)O[Si](C)(C)O[Si](C)(C)O[Si](C)(C)O[Si](C)(C)O[Si](C)(C)Oc1c(*)c2ccccc2c2ccccc12 (repeat unit)	-68.00
*CC(*)(C)C(=O)OCCCCOc1ccc2cc(C(=O)Oc3ccccc3)ccc2c1 (repeat unit)	88.00
*NC1CCC(CC2CCC(NC(=O)CCCCCCCCCCCCC(*)=O)CC2)CC1 (repeat unit)	131.00
*O/C(=C/CC)C(CC)C(*)=O (repeat unit)	-15.90
*CC(*)OC(=O)OCC(F)(F)F (repeat unit)	57.00
*Oc1ccc(C(=O)OCCCCOC(=O)c2ccc(*)cc2)cc1 (repeat unit)	38.00
*C(CC)COC(=O)NCCCCCCNC(=O)OCC(CC)n1c(=O)c2cc3c(=O)n(*)c(=O)c3cc2c1=O (repeat unit)	61.00
*CC(*)(C)C(=O)OCCOCCOCCOc1ccc(/N=N/c2ccc(C#N)cc2)cc1 (repeat unit)	37.00
*CC(*)(C)C(=O)OCC(F)(F)C(F)F (repeat unit) [Poly(2,2,3,3-tetrafluoropropyl methacrylate)]	75.42 ± 6.5
*CCCCCCCCCCCCCCNC(=O)CCCCCCCCCCCCCCCCC(=O)N* (repeat unit)	48.00
*CCC1CC(OC(=O)CCCCCCCCCCOc2ccc(-c3ccc(C#N)cc3)cc2)CC1* (repeat unit)	24.00
*CC(C)(C)C1C(=O)OC(=O)C1* (repeat unit)	141.00
*Oc1ccc(NC(=O)NC2CC(C)(C)CC(C)(CNC(=O)Nc3ccc(*)cc3)C2)cc1 (repeat unit)	274.00
*Sc1ccc2c(c1)Sc1ccc(*)cc1S2 (repeat unit)	209.90
*[O][Sn]([CH2]CCC)([CH2]CCC)[O]C(=O)CCCCC(*)=O (repeat unit)	110.00

More lines, now with the values ahead:

glass transition temperature [°C]	SMILES
202.00	*c1ccc(Oc2ccc(Oc3ccc(N4C(=O)c5ccc(Oc6ccccc6Oc6ccc7c(c6)C(=O)N(*)C7=O)cc5C4=O)cc3)cc2)cc1 (repeat unit)
231.00	*c1ccc(NC2CC(=O)N(c3ccc(-c4sc(-c5ccc(N6C(=O)CC(Nc7ccc(-c8nc(C#N)c(C#N)nc8*)cc7)C6=O)cc5)c(-c5ccccc5)c4-c4ccccc4)cc3)C2=O)cc1 (repeat unit)
303.00	*C(=O)Nc1ccc(Oc2ccc(Oc3ccc(NC(=O)c4ccc5c(c4)C(=O)N(c4ccc(-c6sc(-c7ccc(N8C(=O)c9ccc(*)cc9C8=O)cc7)c(-c7ccccc7)c6-c6ccccc6)cc4)C5=O)cc3)cc2)cc1 (repeat unit)
103.50	*C(=O)c1ccc2c(c1)C(=O)N(c1ccc(-c3c(-c4ccc(-c5ccccc5)cc4)cc(-c4ccc(OCCCCCCCCCCOc5ccc(-c6cc(-c7ccc(-c8ccccc8)cc7)c(-c7ccc(N8C(=O)c9ccc(*)cc9C8=O)cc7)c(-c7ccc(-c8ccccc8)cc7)c6)cc5)cc4)cc3-c3ccc(-c4ccccc4)cc3)cc1)C2=O (repeat unit)
333.00	*C(=O)Nc1ccc(NC(=O)c2ccc3c(c2)C(=O)N(c2ccc(-c4sc(-c5ccc(N6C(=O)c7ccc(*)cc7C6=O)cc5)c(-c5ccccc5)c4-c4ccccc4)cc2)C3=O)cc1 (repeat unit)
234.00	*C(=O)c1ccc2c(c1)C(=O)N(c1ccc(OCC(C)(C)COc3ccc(N4C(=O)c5ccc(*)cc5C4=O)cc3)cc1)C2=O (repeat unit)
213.00	*c1ccc(Oc2ccc(Oc3ccc(NC(=O)c4cccc(Oc5ccc6c(c5)C(=O)N(*)C6=O)c4)cc3)cc2)cc1 (repeat unit)
207.00	*C(=O)Nc1ccc(Oc2ccc(C(C)(C)c3ccc(Oc4ccc(NC(=O)c5ccc6c(c5)C(=O)N(c5ccc(Oc7cccc(N8C(=O)c9ccc(*)cc9C8=O)c7)cc5)C6=O)cc4)cc3)cc2)cc1 (repeat unit)
312.90	*c1c(C)cc(C(c2cccc(C(F)(F)F)c2)c2cc(C)c(N3C(=O)c4ccc(-c5ccc6c(c5)C(=O)N(*)C6=O)cc4C3=O)c(C)c2)cc1C (repeat unit)
165.00	*c1ccc(Oc2cccc(N3C(=O)c4ccc([Si](C)(C)O[Si](C)(C)c5ccc6c(c5)C(=O)N(c5cccc(Oc7ccc(-c8nnc(*)o8)cc7)c5)C6=O)cc4C3=O)c2)cc1 (repeat unit)
289.00	*c1c(C)cc(Cc2cc(C)c(N3C(=O)c4cccc(Oc5c(C)cc(-c6cc(C)c(Oc7cccc8c7C(=O)N(*)C8=O)c(C)c6)cc5C)c4C3=O)c(C)c2)cc1C (repeat unit)
252.00	*c1ccc(CC(=O)Nc2ccc(S(=O)(=O)c3ccc(NC(=O)Cc4ccc(-c5sc(*)c(-c6ccccc6)c5-c5ccccc5)cc4)cc3)cc2)cc1 (repeat unit)
286.10	*c1ccc2c(c1)C(=O)N(c1c(C)cc(C(c3cccc(C(F)(F)F)c3)c3cc(C)c(N4C(=O)c5ccc(C(*)(C(F)(F)F)C(F)(F)F)cc5C4=O)c(C)c3)cc1C)C2=O (repeat unit)
338.00	*c1cccc(N2C(=O)c3ccc(C(c4ccc5c(c4)C(=O)N(c4cccc(-n6c(=O)c7cc8c(=O)n(*)c(=O)c8cc7c6=O)c4)C5=O)(C(F)(F)F)C(F)(F)F)cc3C2=O)c1 (repeat unit)
188.00	*Oc1ccc(S(=O)(=O)c2ccc(Oc3ccc(/C=C4\CCCC/C(=C\c5ccc(Oc6ccc(S(=O)(=O)c7ccc(Oc8ccc(C(C)(C)c9ccc(*)cc9)cc8)cc7)cc6)cc5)C4=O)cc3)cc2)cc1 (repeat unit)
360.00	*c1ccc(-c2cc(-c3ccc(OCCCC#N)cc3)cc(-c3ccc(N4C(=O)c5ccc(-c6ccc7c(c6)C(=O)N(*)C7=O)cc5C4=O)cc3)n2)cc1 (repeat unit)
281.00	*Oc1ccc(NC(=O)NC2CC(C)(C)CC(C)(CNC(=O)Nc3ccc(*)c(-c4ccc(Oc5ccccc5)cc4)c3)C2)cc1-c1ccc(Oc2ccccc2)cc1 (repeat unit)
122.00	*Oc1ccc(Oc2ccc(Oc3ccc(C(C)(C)c4ccc(*)cc4)cc3)cc2)cc1 (repeat unit)
259.00	*c1ccc(Oc2ccc(C3(c4ccc(Oc5ccc(N6C(=O)c7ccc(Oc8ccc(C9(c%10ccc(Oc%11ccc%12c(c%11)C(=O)N(*)C%12=O)cc%10)CCCCCCCCCCC9)cc8)cc7C6=O)cc5)cc4)CC4CCC3C4)cc2)cc1 (repeat unit)
265.00	*c1ccc(C(C)(C)c2ccc(N3C(=O)c4ccc(Oc5ccc6c(c5)C(=O)N(*)C6=O)cc4C3=O)cc2)cc1 (repeat unit)
281.00	*c1c(C)cc(Cc2cc(C)c(N3C(=O)c4ccc(Oc5cccc6c(Oc7ccc8c(c7)C(=O)N(*)C8=O)cccc56)cc4C3=O)c(C)c2)cc1C (repeat unit)
133.00	*CCCCCCN1C(=O)c2ccc(C(=O)Oc3ccc(-c4ccc(OC(=O)c5ccc6c(c5)C(=O)N(*)C6=O)cc4)cc3)cc2C1=O (repeat unit)
